Where two headings read alike, the source gives them in different places. Residues, ends and D or L forms follow the SMILES beside them. *: point of attachment. Octanoyl = CCCCCCCC(=O)*
Columns and labels:
E. faecalis ATCC 29212 = type: cell-based, Enterococcus faecalis; conditions: ATCC 29212, 18 h
Summary of the method: (§1)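 Minimum inhibitory concentration came from a CLSI broth dilution assay: 18 h at 37 °C, inoculum 5 × 10^5 CFU/mL final.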

E. faecium ATCC 27270 = type: cell-based, Enterococcus faecium; conditions: ATCC 27270, 18 h
Summary of the method: as §1

E. cloacae 118564 = type: cell-based, Enterobacter cloacae; conditions: for MICUTBLP: UTBLP alone
Summary of the method: (§2)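 Checkerboard synergy assay: antibiotic and OMP combined at varying concentrations with 5 × 10^5 CFU/mL inoculum (final), 37 °C, 18 h; growth read as turbidity at 590 nm. FICI = sum of FICs (MIC in combination / MIC alone); ≤0.5 synergistic, 0.5–4 additive, >4 antagonistic.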

E. coli 94474 = type: cell-based, Escherichia coli; conditions: for MICUTBLP: UTBLP alone
Summary of the method: as §2

A. baumannii ATCC 17978 [1] = type: cell-based, Acinetobacter baumannii; conditions: ATCC 17978, 18 h
Summary of the method: as §1

MRSA ATCC 33592 = type: cell-based, Staphylococcus aureus
Summary of the method: as §2

S. aureus ATCC 29213 = type: cell-based, Staphylococcus aureus
Summary of the method: as §2

A. baumannii AB92247 = assay: microbe, parasite or virus in culture; type: cell-based, Acinetobacter baumannii; conditions: AB92247, 18 h
Summary of the method: as §1

A. baumannii AB027 [2] = assay: microbe, parasite or virus in culture; type: cell-based, Acinetobacter baumannii; conditions: AB027, 18 h
Summary of the method: as §1

K. pneumoniae 113250 = type: cell-based, Klebsiella pneumoniae; conditions: for MICUTBLP: UTBLP alone
Summary of the method: as §2

[3] = test system: P. aeruginosa PA259-96196; type: cell-based, Pseudomonas aeruginosa; conditions: for MICUTBLP: UTBLP alone
Summary of the method: as §2

P. aeruginosa PAO1 = type: cell-based, Pseudomonas aeruginosa; conditions: for MICUTBLP: UTBLP alone
Summary of the method: as §2

[4] = test system: P. aeruginosa PA262-101856; type: cell-based, Pseudomonas aeruginosa; conditions: for MICUTBLP: UTBLP alone
Summary of the method: as §2

A. baumannii 92247 = type: cell-based, Acinetobacter baumannii; conditions: for MICUTBLP: UTBLP alone
Summary of the method: as §2

A. baumannii ATCC 17978 [5] = type: cell-based, Acinetobacter baumannii; conditions: for MICUTBLP: UTBLP alone
Summary of the method: as §2

A. baumannii AB027 [6] = type: cell-based, Acinetobacter baumannii; conditions: for MICUTBLP: UTBLP alone
Summary of the method: as §2

[7] = UTBLP in combination with novobiocin
[8] = UTBLP in combination with rifampicin
[9] = novobiocin in combination with the UTBLP
[10] = rifampicin in combination with the UTBLP
[11] = UTBLP alone, plate with chloramphenicol
[12] = UTBLP in combination with chloramphenicol
[13] = chloramphenicol in combination with the UTBLP
[14] = UTBLP in combination with niclosamide
[15] = niclosamide in combination with the UTBLP

CCCCCCCC(=O)NCCCC[C@H](NC(=O)CCCCCCC)C(=O)N[C@@H](CCCCN)C(=O)N[C@@H](CCCCN)C(=O)N[C@@H](CCCCN)C(=O)N[C@@H](CCCCN)C(N)=O [UTBLP 5] (Octanoyl-K(Octanoyl)KKKK-NH2)
4 µg/mL: MICUTBLP [MICcombo] (E. coli 94474; [7]) | MICUTBLP [MICcombo] [3, 7] | MICUTBLP [MICcombo] (P. aeruginosa PAO1; [14]) | MICantibiotic [MICcombo] (P. aeruginosa PAO1; [15]) | MICUTBLP [MICcombo] (A. baumannii ATCC 17978 [5]; [12])
128 µg/mL: MICUTBLP (E. coli 94474; plate with novobiocin) | MICUTBLP (E. coli 94474; plate with rifampicin) | MIC (A. baumannii AB027 [2]) | MICUTBLP ([3]; plate with novobiocin) | MICUTBLP (A. baumannii AB027 [6]; plate with novobiocin) | MICUTBLP (A. baumannii AB027 [6]; plate with rifampicin)
> 128 µg/mL: MICUTBLP (E. cloacae 118564; plate with novobiocin) | MICUTBLP (E. cloacae 118564; plate with rifampicin) | MICUTBLP (K. pneumoniae 113250; plate with novobiocin) | MICUTBLP (K. pneumoniae 113250; plate with rifampicin) | MICUTBLP ([3]; plate with rifampicin) | MICUTBLP (P. aeruginosa PAO1; plate with chloramphenicol) | MICUTBLP (P. aeruginosa PAO1; plate with niclosamide) | MICUTBLP (P. aeruginosa PAO1; plate with novobiocin) | MICUTBLP (P. aeruginosa PAO1; plate with rifampicin) | MICUTBLP ([4]; plate with novobiocin) | MICUTBLP ([4]; plate with rifampicin)
64 µg/mL: MIC (A. baumannii ATCC 17978 [1]) | MICUTBLP (MRSA ATCC 33592; [11]) | MICchloramphenicol [MICcombo] (MRSA ATCC 33592; [13]) | MICUTBLP (S. aureus ATCC 29213; [11]) | MICUTBLP (A. baumannii ATCC 17978 [5]; plate with chloramphenicol) | MICUTBLP (A. baumannii ATCC 17978 [5]; plate with niclosamide) | MICUTBLP (A. baumannii ATCC 17978 [5]; plate with novobiocin) | MICUTBLP (A. baumannii ATCC 17978 [5]; plate with rifampicin)
Additive (0.5 < x ≤ 4 is additive): Interpretation (MRSA ATCC 33592; UTBLP + chloramphenicol) | Interpretation (A. baumannii ATCC 17978 [5]; UTBLP + chloramphenicol)
0.25 µg/mL: MICantibiotic [MICcombo] (E. coli 94474; [10]) | MICUTBLP [MICcombo] (MRSA ATCC 33592; [12]) | MICantibiotic [MICcombo] (A. baumannii AB027 [6]; [9])
0.125 µg/mL: MICantibiotic [MICcombo] (A. baumannii 92247; [9]) | MICantibiotic [MICcombo] (A. baumannii ATCC 17978 [5]; [9])
1 µg/mL: MICantibiotic [MICcombo] (E. coli 94474; [9]) | MICantibiotic [MICcombo] (K. pneumoniae 113250; [9]) | MICUTBLP [MICcombo] (A. baumannii 92247; [7]) | MICUTBLP [MICcombo] (A. baumannii ATCC 17978 [5]; [8]) | MICantibiotic [MICcombo] (A. baumannii ATCC 17978 [5]; [15]) | MICUTBLP [MICcombo] (A. baumannii AB027 [6]; [7])
32 µg/mL: MIC (E. faecalis ATCC 29212) | MIC (E. faecium ATCC 27270) | MIC (A. baumannii AB92247) | MICantibiotic [MICcombo] [4, 10] | MICUTBLP (A. baumannii 92247; plate with novobiocin) | MICUTBLP (A. baumannii 92247; plate with rifampicin) | MICantibiotic [MICcombo] (A. baumannii ATCC 17978 [5]; [13])
8 µg/mL: MICUTBLP [MICcombo] (E. cloacae 118564; [8]) | MICUTBLP [MICcombo] (K. pneumoniae 113250; [8]) | MICUTBLP [MICcombo] [3, 8] | MICantibiotic [MICcombo] (P. aeruginosa PAO1; [9])
0.031 µg/mL: MICantibiotic [MICcombo] (A. baumannii ATCC 17978 [5]; [10])
Synergy (FICI ≤ 0.5 is synergistic): Interpretation (E. cloacae 118564; UTBLP + novobiocin) | Interpretation (E. cloacae 118564; UTBLP + rifampicin) | Interpretation (E. coli 94474; UTBLP + novobiocin) | Interpretation (E. coli 94474; UTBLP + rifampicin) | Interpretation (K. pneumoniae 113250; UTBLP + novobiocin) | Interpretation (K. pneumoniae 113250; UTBLP + rifampicin) | Interpretation ([3]; UTBLP + novobiocin) | Interpretation ([3]; UTBLP + rifampicin) | Interpretation (P. aeruginosa PAO1; UTBLP + chloramphenicol) | Interpretation (P. aeruginosa PAO1; UTBLP + niclosamide) | Interpretation (P. aeruginosa PAO1; UTBLP + novobiocin) | Interpretation (P. aeruginosa PAO1; UTBLP + rifampicin) | Interpretation ([4]; UTBLP + novobiocin) | Interpretation ([4]; UTBLP + rifampicin) | Interpretation (A. baumannii 92247; UTBLP + novobiocin) | Interpretation (A. baumannii 92247; UTBLP + rifampicin) | Interpretation (A. baumannii ATCC 17978 [5]; UTBLP + niclosamide) | Interpretation (A. baumannii ATCC 17978 [5]; UTBLP + novobiocin) | Interpretation (A. baumannii ATCC 17978 [5]; UTBLP + rifampicin) | Interpretation (A. baumannii AB027 [6]; UTBLP + novobiocin) | Interpretation (A. baumannii AB027 [6]; UTBLP + rifampicin)
0.5 µg/mL: MICantibiotic [MICcombo] (E. cloacae 118564; [9]) | MICantibiotic [MICcombo] (E. cloacae 118564; [10]) | MICantibiotic [MICcombo] (K. pneumoniae 113250; [10]) | MICantibiotic [MICcombo] [3, 10] | MICantibiotic [MICcombo] (P. aeruginosa PAO1; [10]) | MICUTBLP [MICcombo] (A. baumannii ATCC 17978 [5]; [14])
2 µg/mL: MICUTBLP [MICcombo] (E. coli 94474; [8]) | MICchloramphenicol [MICcombo] (S. aureus ATCC 29213; [13]) | MICUTBLP [MICcombo] (P. aeruginosa PAO1; [12]) | MICantibiotic [MICcombo] (P. aeruginosa PAO1; [13]) | MICUTBLP [MICcombo] (A. baumannii 92247; [8]) | MICUTBLP [MICcombo] (A. baumannii ATCC 17978 [5]; [7]) | MICUTBLP [MICcombo] (A. baumannii AB027 [6]; [8])
0.016 µg/mL: MICantibiotic [MICcombo] (A. baumannii AB027 [6]; [10])
16 µg/mL: MICUTBLP [MICcombo] (E. cloacae 118564; [7]) | MICUTBLP [MICcombo] (S. aureus ATCC 29213; [12]) | MICUTBLP [MICcombo] (K. pneumoniae 113250; [7]) | MICantibiotic [MICcombo] [3, 9] | MICUTBLP [MICcombo] (P. aeruginosa PAO1; [7]) | MICUTBLP [MICcombo] (P. aeruginosa PAO1; [8]) | MICUTBLP [MICcombo] [4, 7] | MICUTBLP [MICcombo] [4, 8] | MICantibiotic [MICcombo] [4, 9]
0.063 µg/mL: MICantibiotic [MICcombo] (A. baumannii 92247; [10])
